Assays:
[1] = test system: 13-series resolvins (RvT) and eicosanoids; settings: blood 2 h after last statin dose on day 7
[2] = test system: joint non-classical monocytes, neutrophils and monocyte-derived macrophages; test: Flow cytometry of leukocytes isolated from inflamed paws/joints; assay type: in vivo, mice; settings: paws day 8, vs vehicle
Experimental: Front paws were collected on day 8 and digested to liberate infiltrating leukocytes. Leukocyte subsets were defined using antibodies against specific markers and flow cytometry. Trafficking and activation of (A) non-classical monocytes, (B) neutrophils, (C) monocyte-derived macrophages were assessed.
(§1) JCI Insight. 2016; 1(5):e85922.
Paws were harvested and leukocytes isolated as described in Dalli J et al. 2015 (ibid). Briefly, paws were incubated in RPMI-1640 (containing […] collagenase D and 40 µg/mL DNAse I) at 37° C. for 30 minutes with vigorous agitation. Isolated cells were passed through a […] strainer and suspended in RPMI-1640 containing […] and 10% FBS, then centrifugated at 400×g, 10 minutes. Isolated cells were suspended in DPBS−/− containing 0.02% BSA and 1% Fc-blocking IgG (v/v), and incubated with 0.1% Live/Dead stain for 20 minutes on ice. Cells were washed using DPBS−/− and incubated with fluorescent-labelled antibodies for 45 minutes on ice. These were then washed and fixed using 1% paraformaldehyde. Absolute counting beads were used for leukocyte enumeration. Staining was then evaluated using a flow cytometry analyser and analysed using suitable software.
First, the trafficking of non-classical monocytes to the inflamed joints was assessed, given their role in disease onset and propagation of K/B×N serum initiated inflammatory arthritis.

[3] = test system: 13-series resolvins (RvT); test: Lipid mediator profiling (LC-MS/MS) of paws in K/BxN serum inflammatory arthritis; assay type: in vivo, mice; settings: for increase in overall RvT amounts in joints/paws compared with vehicle: paws collected day 8, 24 h after last dose
Experimental: as §1
(§2) Blood and paws were collected either on day 8 after arthritis onset or 2 h after statin injection on day 7.
Ice-cold methanol containing 500 pg of each deuterated (d) internal standard: d8-SSHydroxyeicosatetraenoic, d4-Leukotriene (LT) B4, d5-Lipoxin (LX) A4, d-Prostaglandin (PG) E2 and d5-Resolvin D2, was added to samples. […] J Clin Invest. 2017; 127(1):169-182.
Using multiple reaction monitoring the concentrations of mediators identified in these paws were quantified.

[4] = test system: circulating monocytes, neutrophils and platelets; test: Flow cytometry of circulating leukocytes and platelets in inflammatory arthritis; assay type: in vivo, mice; settings: 0.2 mg/Kg days 3, 5, 7; blood day 8, vs vehicle
Male C57BL/6 mice = test: K/BxN serum inflammatory arthritis: 26-point clinical score, paw swelling, knee H&E histology; assay type: in vivo; settings: 0.2 mg/Kg days 3, 5, 7
Experimental: Male C57BL/6 mice (11 weeks old) were procured from Charles River (Kent, UK). All animals were provided with standard laboratory diet and water ad libitum and kept on a 12 h light/dark cycle.
as §1, §2
Arthritis was initiated and mice were treated and disease progression monitored as described above.

E. coli infections = settings: atorvastatin and RvTs, additive actions; cited from earlier work
[5] = clearance from the circulation; cited from earlier work
[6] = celecoxib 10 mg/Kg 1 h prior to pravastatin or atorvastatin, paws day 8

SMILES: CC(C)c1c(C(=O)Nc2ccccc2)c(-c2ccccc2)c(-c2ccc(F)cc2)n1CC[C@@H](O)C[C@@H](O)CC(=O)O [atorvastatin]
- decrease in circulating PGD2 [1]: decreased
- decrease in circulating PGE2 [1]: decreased
- reduction in total numbers of non-classical monocytes recruited to the joints ([2]; 0.2 mg/Kg days 3, 5, 7): > 60%
- CD11b expression on joint non-classical monocytes ([2]; 0.2 mg/Kg): reduction
- MHCII expression on joint non-classical monocytes ([2]; 0.2 mg/Kg): significant reduction
- joint neutrophil CD11b and MHCII expression ([2]; 0.2 mg/Kg): did not reach statistical significance
- neutrophil trafficking to the joint ([2]; 0.2 mg/Kg): decreased
- number of monocyte-derived macrophages in joints and their CD11b and MHCII expression ([2]; 0.2 mg/Kg): significant reduction
- increase in overall RvT amounts in joints/paws compared with vehicle ([3]; 0.2 mg/Kg i.v. days 3, 5, 7): 43%
- individual RvT increased in paws compared with vehicle ([3]; 0.2 mg/Kg i.v. days 3, 5, 7, paws day 8): increased RvT1, RvT2, RvT3 and RvT4
- neutrophil CD11b expression (circulating) [4]: significantly reducing
- reduction in CD11b expression on circulating classical monocytes [4]: regulated
- reduction in CD11b expression on circulating non-classical monocytes [4]: regulated
- reduction in platelet CD62P expression [4]: ~60%
- reduction in platelet-monocyte aggregates (both monocyte subsets) [4]: regulated
- reduction in platelet-neutrophil aggregates [4]: significantly reducing
- joint swelling (midfoot pad thickness) (Male C57BL/6 mice): reduced joint swelling
- H&E knee joint sections: leukocyte infiltration, pannus formation and joint damage (Male C57BL/6 mice; day 8, vs vehicle): reduced leukocyte infiltration, pannus formation and joint damage
- maximum disease score (26-point clinical score) (Male C57BL/6 mice; maximum at day 5): 9.1±1.2
- increased survival (E. coli infections): > 60%

SMILES: Cc1ccc(-c2cc(C(F)(F)F)nn2-c2ccc(S(N)(=O)=O)cc2)cc1 [celecoxib]
- reduction in joint RvT1 concentration compared to statin alone [3, 6]: > 75%
- reduction in joint RvT compared to statin alone [3, 6]: ~60%

SMILES: CC[C@H](C)C(=O)O[C@H]1C[C@H](O)C=C2C=C[C@H](C)[C@H](CC[C@@H](O)C[C@@H](O)CC(=O)O)[C@H]21 [pravastatin]
- decrease in circulating PGD2 [1]: ~46%
- decrease in circulating PGE2 [1]: ~29%
- increase in plasma/peripheral blood RvT compared with vehicle [1]: > 100%
- increase in overall RvT amounts in joints/paws compared with vehicle ([3]; 0.2 mg/Kg i.v. days 3, 5, 7): ~20%
- reduction in CD11b expression on circulating classical monocytes [4]: ~40%
- reduction in CD11b expression on circulating non-classical monocytes [4]: ~10%
- reduction in platelet CD62P expression [4]: ~70%
- reduction in platelet-monocyte aggregates (both monocyte subsets) [4]: ~35%
- reduction in platelet-neutrophil aggregates [4]: ~25%
- reduction in disease activity compared with vehicle (Male C57BL/6 mice; day 5 through day 7): ~23%
- half-life [5]: ~3 h

From US11531036B2, “Method and apparatus for determining the efficacy of statins for treating inflammatory diseases in individual patients” (Queen Mary University of London, priority 2017, dated 2022)
